Test [1] relates to HLO. Briefly: HLO survival assay, Intralipid exposed HLO (PNALD model). The note with it: added to 400 μM Intralipid exposed HLO (PNALD-HLO); FGF19 40 ng/ml. The class given is cell-based. The source says: PNALD is an iatrogenic fatty liver disease which occurs frequently in infants provided with parental nutrition (PN) solutions employing a lipid emulsion (Intralipid) that provide life-sustaining calories in the setting of inadequate absorption of enteral nutrients (Kumar and Teckman, 2015; Orso et al., 2016). PNALD has a histological evidence of steatosis, cell death (apoptosis), and fibrosis (Nandivada et al., 2013). To recapitulate PNALD pathology in HLO, we reconstituted components of Intralipid and placed it directly into HLO culture.
[…]; Kumar and Teckman, 2015; Neuschwander-Tetri et al., 2015). To implicate the therapeutic significance of OCA and FGF19 for PNALD like pathology in HLO, OCA and FGF19 were added to 400 μM Intralipid exposed HLO. […] Mechanistically, the accumulation of reactive oxygen species (ROS) is strongly associated with the fatty liver related hepatocyte death (Nandivada et al., 2013; Tsedensodnom and Sadler, 2013). We thus wondered whether OCA and FGF19 would inhibit the production of ROS so we sought to confirm that theory with live-cell imaging with CellROX dye. […]. […]
HLO survival assay. […] HLO were captured on The KEYENCE BZ-X710 Fluorescence Microscope every day. The surviving and dead organoids were counted manually from the photo. HLO with a rounded configuration was counted as the surviving while the organoids with out of shape is counted as dead. […]

In test [2] the test system is HLO. Briefly: ROS live-cell imaging with CellROX dye in HLO. The class given is cell-based, human. The note with it: for ROS production: 400 μM Intralipid treated HLO, live-cell imaging, CellROX. The source says:
Because there are no established ameliorative strategies, and PNALD is the leading indication for liver transplantation in infants (El Kasmi et al., 2013), we further investigated preventive and therapeutic effects of FXR agonist obeticholic acid (OCA) and FGF19 hormone that are activated by OCA, which have shown great potential in nonalcoholic steatohepatitis treatment (Dash et al., 2017; Kumar and Teckman, 2015; Neuschwander-Tetri et al., 2015). To implicate the therapeutic significance of OCA and FGF19 for PNALD like pathology in HLO, OCA and FGF19 were added to 400 μM Intralipid exposed HLO. […] Mechanistically, the accumulation of reactive oxygen species (ROS) is strongly associated with the fatty liver related hepatocyte death (Nandivada et al., 2013; Tsedensodnom and Sadler, 2013). We thus wondered whether OCA and FGF19 would inhibit the production of ROS so we sought to confirm that theory with live-cell imaging with CellROX dye.
Phagocyte, lipids, ROS live-cell imaging. After being cultured in an ultra-low attachment 6 multi-well plate, 5-10 HLO were picked up and seeded in a Microslide 8 Well Glass Bottom plate (Ibidi, WI, USA) and subjected to live-cell staining. The following antibodies were used: pHrodo® Red S. aureus Bioparticles® Conjugate for Phagocyte activity (Thermo Fisher Scientific Inc.), BODIPY® 493/503 for lipids (Thermo Fisher Scientific Inc.), Di-8-ANEPPS for membrane (Thermo Fisher Scientific Inc.), and CellROX green reagent for ROS detection (Thermo Fisher Scientific Inc.). Nuclear staining was marked by NucBlue Live ReadyProbes Reagent (Thermo Fisher Scientific Inc.). […] The final lipid droplet volume was calculated by IMARIS8 and normalized by each organoid size. Significance testing for lipid droplet volume and ROS production (%) was conducted by Student's t-test.

For test [3], the system named is HLO. Briefly: HLO survival, 800 μM OA treated HLO (3D cell titer glo). The note with it: 800 μM OA + FGF19 40 ng/ml, same time point. The class given is cell-based, human. The protocol: LPS and FFA exposure and OCA and FGF19 treatment. 20-30 hLOHLO, which had been isolated from Matrigel and washed by 1×PBS, were divided into each condition and cultured on an ultra-low attachment 6 multi-well plates (Corning). HLO were cultured with LPS (Sigma), OA (Sigma), LA (Sigma), SA (Sigma), or PA (Sigma) and collected at day 1 and 3 (for LPS HLO) and at day 3 and 5 (for OA) after the culture. To test the inhibitory effect of OCA (INT-747, MedChem Express, NJ, USA) and human FGF19 recombinant (Sigma) on HLO, 20-30 HLO were cultured in HCM media in the presence or absence of oleic acid (800 μM), and 1 μM OCA and 40 ng/ml FGF19 were added into 800 μM OA condition. HLO were collected at day 3 for lipids live-cell imaging and at day 5 for stiffness measurement.
HLO survival assay. HLO were collected from Matrigel and washed by 1×PBS. 30-40 organoids were cultured on an ultra-low attachment 6 multi-well plate (Corning). HLO were captured on The KEYENCE BZ-X710 Fluorescence Microscope every day. The surviving and dead organoids were counted manually from the photo. HLO with a rounded configuration was counted as the surviving while the organoids with out of shape is counted as dead. To assess the survival rate of OA treated HLO at the same time point, 3D cell titer glo assay was used (Promega, Wi, USA).

Test [4] deals with HLO. Briefly: HLO stiffness measurement by AFM. The class given is cell-based, human. The protocol:
To further determine whether OCA and FGF19 have an impact on fibrosis, HLO stiffness was assessed. Organoid damage induced by Intralipid is extremely significant and treated HLOs for 5 days are not able to be stabilized on a dish, which is a minimal requirement for assessing the rigidity by AFM. To circumvent this limitation, the stiffness was assessed at Day3.
LPS and FFA exposure and OCA and FGF19 treatment. 20-30 hLOHLO, which had been isolated from Matrigel and washed by 1×PBS, were divided into each condition and cultured on an ultra-low attachment 6 multi-well plates (Corning). […]
HLO stiffness measurement by AFM. […] The AFM head with a silicon nitride cantilever (CSC37, k=0.3 N/m, MikroMasch, Bulgaria) was mounted on a fluorescence stereo microscope (M205 FA, Leica, Germany) coupled with a Z-axis piezo stage (JPK CellHesion module, JPK Instruments, Germany), which allows the indentation measurement up to the depth of ˜100 μm. […] The sample dish was then placed onto the AFM stage, and force-distance curves in a 14×14 matrix in a 25×25 μm square were measured from each HLO. Finally, Young's moduli (E, Pa) of HLOs were determined by fitting the obtained force-distance curves with the modified Hertz model (Sneddon, 1965). […]

Entries after “also recorded” stand apart in the source; their conditions may differ.

These results are taken from patent publication US10668108B2, “Compositions and methods of treating liver disease” (Children's Hospital Medical Center, priority 2016, dated 2020).

As for “FGF19: human FGF19 recombinant (Sigma); hormone activated by OCA”, the “number of surviving organoids” value with HLO [1] is listed as about 78%. In the test on HLO [2], this molecule displayed an ROS production of 30%. The “effect on ROS production caused by 400 μM Int” value in the test on HLO [2] (400 μM Intralipid, FGF19 40 ng/ml) is listed as “inhibit the ROS production”. In addition, the “survival of 800 μM OA HLO” value in the test with HLO [3] is given as “significantly improved”. Moreover, the “stiffness of OA treated HLO (AFM)” value in the test with HLO [4] (800 μM OA + FGF19 40 ng/ml) is “significantly softened; also recorded: decreased”. The “progression of fibrosis (HLO stiffness)” value in the test with HLO [4] (Intralipid treated HLO, stiffness assessed at Day3) is “reduce the progression of fibrosis”.
As to `CC[C@H]1[C@@H](O)[C@@H]2[C@H](CC[C@]3(C)[C@@H]([C@H](C)CCC(=O)O)CC[C@@H]23)[C@@]2(C)CC[C@@H](O)C[C@@H]12` [OCA, obeticholic acid, reference compound], the “number of surviving organoids” value with HLO [1] is “around 83%”. The ROS production in the test with HLO [2] turned out to be 20%.
